According to PubChem BioAssay (NCI):
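Assay format: 96-well plates, 48-hour exposure. Abbreviation: GI50, concentration required for 50% inhibition of growth. TGI marks complete inhibition of growth.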

What was measured:
Assay in all cases: growth of human tumour cells (NCI), 48 h
NCI-H522 lung = tested on: NCI-H522 lung
SF-539 CNS = tested on: SF-539 CNS
SW-620 colon = tested on: SW-620 colon
DU-145 prostate = tested on: DU-145 prostate
MCF7 breast = tested on: MCF7 breast
NCI-H23 lung = tested on: NCI-H23 lung
A549 NSCLC = tested on: A549 NSCLC
UACC-62 melanoma = tested on: UACC-62 melanoma
HT29 colon = tested on: HT29 colon
SK-OV-3 ovarian = tested on: SK-OV-3 ovarian

| Structure (SMILES) | GI50 (NCI-H522 lung) [µM] | TGI (NCI-H522 lung) [µM] | GI50 (SF-539 CNS) [µM] | TGI (SF-539 CNS) [µM] | GI50 (SW-620 colon) [µM] | TGI (SW-620 colon) [µM] | GI50 (DU-145 prostate) [µM] | TGI (DU-145 prostate) [µM] | GI50 (MCF7 breast) [µM] | TGI (MCF7 breast) [µM] | GI50 (NCI-H23 lung) [µM] | TGI (NCI-H23 lung) [µM] | GI50 (A549 NSCLC) [µM] | TGI (A549 NSCLC) [µM] | GI50 (UACC-62 melanoma) [µM] | TGI (UACC-62 melanoma) [µM] | GI50 (HT29 colon) [µM] | TGI (HT29 colon) [µM] | GI50 (SK-OV-3 ovarian) [µM] | TGI (SK-OV-3 ovarian) [µM] |
| --- | --- | --- | --- | --- | --- | --- | --- | --- | --- | --- | --- | --- | --- | --- | --- | --- | --- | --- | --- | --- |
| CCOC(=O)c1c(C)n(Cc2ccc(Cl)cc2Cl)c2c1cc(O)c1[nH]c(Cc3ccccc3)nc12 | 3.2 | 15.6 | 7.62 | 19.9 | 2.21 | 6.02 | 3.07 | 8.66 | 3.24 | 10.1 | 3.6 | 10.6 | 2.86 | 14 | 18.6 | 34.1 | 3.89 | 17.3 | 16.3 | 32 |
| CCc1n(Cc2ccc3ccccc3c2)cc[n+]1Cc1ccc2ccccc2c1 | 0.303 | 1.44 | 0.8 | 2.3 | 0.964 | 2.55 | 0.965 | 4.23 | 0.384 | 1.8 | 0.396 | 2.02 | 2.59 | 13.9 | 0.507 | 2 | 0.563 | 2.23 | 1.46 | 5.73 |
| N#C/C(=C\c1ccccn1)c1nc2ccccc2o1 | 16.6 | 37 | 23.8 | 66.5 | 17.5 | 37.1 | 34.4 | > 100 | 16 | > 100 | 33.9 | > 100 | 36.5 | > 100 | 21.3 | 46.2 | 30.6 | 95.2 | 45.9 | > 100 |
| CC1=C(C(=O)Nc2cc(F)c(F)cc2F)C(c2ccc(N(C)C)cc2)C(C(=O)Nc2cc(F)c(F)cc2F)=C(C)N1 | – | 51 | – | > 74.1 | – | > 100 | 49.4 | > 100 | 16.3 | > 100 | – | > 85.1 | – | > 60.5 | 12.2 | 89.8 | – | > 91.3 | – | > 100 |
| O=C1C2C3C=CC(C2C(=O)N1CN1CCOCC1)C1C2C(=O)N(CN4CCOCC4)C(=O)C2C31 (configuration not stated) | – | > 55.2 | – | > 79.6 | – | > 69.8 | – | > 100 | – | > 100 | – | > 66.8 | – | > 86.9 | – | > 63 | – | > 100 | – | > 100 |
| Cc1ccc(S(=O)(=O)NC(=O)Nc2ncn[nH]2)cc1 | – | > 100 | – | > 100 | – | > 100 | – | > 100 | – | > 100 | – | > 100 | – | > 100 | – | > 100 | – | > 100 | – | > 100 |
| C=CCC(NCc1ccccc1)c1cn(C(=O)OCC)c2ccccc12 (configuration not stated) | 19.8 | 42.6 | 5.47 | 18.8 | 18.3 | 41.7 | 20.8 | 60.7 | 51.8 | > 100 | 17.7 | 43.6 | 31.5 | > 100 | 22.6 | 50.6 | 29.6 | > 100 | 44.7 | > 100 |
| COc1ccc(C(=O)c2no[n+]([O-])c2C(=O)c2ccc(OC)cc2)cc1 | 0.205 | 0.429 | 2.19 | 4.97 | 1.89 | 3.42 | 14.5 | 27.6 | 4.42 | 18.2 | 2.94 | 8.74 | 17.2 | 34.4 | 10.3 | 23.9 | 2.32 | – | 18 | 32 |
| O=[N+]([O-])c1cc2c(ccc3ccccc32)o1 | 0.563 | 2.18 | 0.617 | 2.97 | 0.404 | 5.91 | 0.341 | 4.81 | 0.212 | 3.01 | 0.331 | 2.03 | 0.413 | 3.12 | 0.426 | 1.72 | 0.307 | 1.8 | 0.571 | 6.25 |
| COc1cccc(C2=C(c3cn(C)c4c(C)cccc34)C(=O)NC2=O)c1 | > 18.2 | > 25 | > 25 | > 25 | > 25 | > 25 | > 25 | > 25 | 16.5 | > 25 | > 25 | > 25 | > 23.2 | > 25 | > 22.1 | > 25 | > 19.6 | > 25 | > 25 | > 25 |
